Reference: publication PMC6100386, “Preparation of Novel Homodimers Derived from Cytotoxic Isoquinolinequinones. A Twin Drug Approach” (Molecules : A Journal of Synthetic Chemistry and Natural …, 2018)
Read-outs that look alike come from different tables or passages of the source.

Tests used:
[1] = tested on: MDA-MB-231 human breast adenocarcinoma cells; experiment: Cell growth inhibition assay (CyQuant direct cell proliferation), breast adenocarcinoma; type: cell-based; conditions: human breast adenocarcinoma cell line, 72 h drug exposure, average of six independent determinations, read-out: IC50 ± SEM, MDA-MB 231
Procedure: (§1) The prepared homodimers 11–15 were evaluated for their in vitro cytotoxic activity using a conventional fluorescence assay (Cyquant direct cell proliferation assays), against primary mouse embryo fibroblast cell line MEF and two cancer cells lines: […] human breast adenocarcinoma and B16-F10 murine metastatic melanoma cells, in 72 h drug exposure assays. Monoamination products 6–10 were included in these preliminary assays. […] Etoposide and taxol, used clinically as anticancer agents, were taken as positive controls.
(§2) The cell lines used in this work included MDA-MB-231 human breast adenocarcinoma cells, B16-F10 mouse melanoma cells and MEF primary mouse embryonic fibroblasts. Cells were grown in DMEM high glucose medium (Mediatech, Manassas, VA, USA) supplemented with 10% (MDA-MB-231, and B16-F10) or 15% (MEF) heat-inactivated fetal bovine serum (HyClone laboratories, South Logan, UT, USA), 100 IU/mL penicillin and 100 μg/mL streptomycin, kept at 37 °C in a 5% CO2 humidified atmosphere. For the experiments, a total of 5.000 cells/well were seeded on a flat-bottomed 96-well plate with 200 μL final volume. Six hours after seeding, the cells were incubated with the medium containing the compounds at concentrations ranging from 0 up to 100 μM dissolved in DMSO (0.1% final concentration) for 72 h. The concentrations used to calculate the IC50 values were 100.0, 30.0, 10.0, 3.0, 1.0, 0.3, 0.1, 0.01 and 0.0 μM. Untreated cells (medium containing 0.1% DMSO) were used as controls. At the end of the incubation, cell viability was measured using CyQuant® direct cell proliferation assay kits (Life Technologies, Carlsbad, CA, USA) in accordance with the manufacturer’s instructions. Briefly, 100 μL of culture medium containing the compounds under evaluation was removed from each well and replaced by 2X detection reagent. The cells were incubated for 1 h and fluorescence emission was measured at 535 nm with excitation at 480 nm in a microplate reader (Infinite 200 PRO, Tecan, Männedorf, Switzerland). At least four independent experiments were performed for each concentration. Each result was transformed to percentage of controls and the IC50 values were obtained graphically from the dose–response curves. The IC50 value was obtained by adjusting the dose–response curve to a sigmoidal curve (variable slope) generated using GraphPad Prisma 6.0 software (La Jolla, CA, USA).

[2] = tested on: MEF primary mouse embryonic fibroblasts; experiment: Cell growth inhibition assay (CyQuant direct cell proliferation), normal fibroblasts; type: cell-based; conditions: normal mouse embryo fibroblast cell line; 72 h drug exposure; average of six independent determinations; read-out: IC50 ± SEM, MEF
Procedure: as §1, §2

[3] = tested on: MDA-MB-231 and B16-F10 tumor cells (versus MEF fibroblasts); experiment: Cell growth inhibition assay, mean over the two tumor cell lines and selectivity versus fibroblasts; type: cell-based; conditions: for SI (mean selectivity index): IC50 values for fibroblast cells / IC50 values for tumor cells (mean IC50); for IC50: mean of the IC50 values of the two tumor cell lines MDA-MB 231 and B16-F10, 72 h
Procedure: as §1, §2

[4] = tested on: B16-F10 mouse melanoma cells; experiment: Cell growth inhibition assay (CyQuant direct cell proliferation), melanoma; type: cell-based; conditions: murine metastatic melanoma cell line, 72 h drug exposure, average of six independent determinations, read-out: IC50 ± SEM, B16-F10
Procedure: as §1, §2

| Compound | IC50 [1] [µM] | IC50 [4] [µM] | IC50 ([1]; MDA-MB-231) [µM] | IC50 ([4]; Mus musculus, B16-F10) [µM] | melting point [°C] | IC50 [2] [µM] | SI (mean selectivity index) [3] | IC50 [3] [µM] | IC50 ([3]; Fibroblast) [µM] |
| --- | --- | --- | --- | --- | --- | --- | --- | --- | --- |
| 4-Acetyl-6-((4-(4-aminobenzyl)phenyl)amino)-3-methylisoquinoline-5,8-dione [Compound 10] | 2.75 ± 0.42 | 2.17 ± 0.37 |  |  |  | 5.14 ± 0.69 | 2.09 | 2.46 |  |
| COC(=O)c1c(C)nc(C)c2c1C(=O)C=C(Nc1ccc(Cc3ccc(N)cc3)cc1)C2=O [Compound 6] |  |  | 2.46 ± 0.39 | 6.16 ± 0.88 | 149 to 150 | 8.87 ± 0.88 | 2.06 |  | 4.31 |
| CC(=O)c1c(C)nc(C)c2c1C(=O)C=C(Nc1ccc(Cc3ccc(N)cc3)cc1)C2=O [Compound 7] | 19.5 ± 1.46 | 7.14 ± 0.95 |  |  |  | 15.4 ± 1.97 | 1.15 | 13.3 |  |
| COC(=O)c1c(C)ncc2c1C(=O)C=C(Nc1ccc(Cc3ccc(N)cc3)cc1)C2=O [Compound 8] |  |  | 1.45 ± 0.31 | 3.31 ± 0.47 | 83 to 84 | 5.54 ± 0.82 | 2.33 |  | 2.38 |
| CC(=O)c1c(C)nc(C)c2c1C(=O)C=C(Nc1ccc(Cc3ccc(NC4=CC(=O)c5c(C(C)=O)c(C)nc(C)c5C4=O)cc3)cc1)C2=O [Compound 12, 7,7′-(4,4′-Methylenebis(4,1-phenylene)bis(azanediyl))bis(4-acetyl-1,3-dimethylisoquinoline-5,8-dione)] | 55.6 ± 5.95 | 48.6 ± 4.42 |  |  |  | 71.6 ± 6.39 | 1.37 | 52.1 |  |
| CC(=O)c1c(C)ncc2c1C(=O)C=C(Nc1ccc(Cc3ccc(NC4=CC(=O)c5c(cnc(C)c5C(C)=O)C4=O)cc3)cc1)C2=O [Compound 14, 7,7′-(4,4′-Methylenebis(4,1-phenylene)bis(azanediyl))bis(4-acetyl-3-methylisoquinoline-5,8-dione)] | 7.98 ± 1.43 | 5.83 ± 0.73 |  |  |  | 32.8 ± 3.38 | 4.74 | 6.91 |  |
| COc1cc([C@@H]2c3cc4c(cc3[C@@H](O[C@@H]3O[C@@H]5CO[C@@H](C)O[C@H]5[C@H](O)[C@H]3O)[C@H]3COC(=O)[C@H]23)OCO4)cc(OC)c1O [Etoposide, reference compound] |  |  | 5.34 ± 0.12 | 2 ± 0.44 |  | 1.18 ± 0.4 | 0.32 |  | 3.67 |
| CC(=O)O[C@H]1C(=O)[C@@]2(C)[C@H]([C@H](OC(=O)c3ccccc3)[C@]3(O)C[C@H](OC(=O)[C@H](O)[C@@H](NC(=O)c4ccccc4)c4ccccc4)C(C)=C1C3(C)C)[C@]1(OC(C)=O)CO[C@@H]1C[C@@H]2O [Taxol, reference compound] |  |  | 0.32 ± 0.07 | 0.38 ± 0.06 |  | 0.32 ± 0.05 | 0.91 |  | 0.35 |

More lines, main results first:

| IC50 [1] [µM] | IC50 [4] [µM] | IC50 ([1]; MDA-MB-231) [µM] | IC50 ([4]; Mus musculus, B16-F10) [µM] | melting point [°C] | Compound | IC50 [2] [µM] | SI (mean selectivity index) [3] | IC50 [3] [µM] | IC50 ([3]; Fibroblast) [µM] |
| --- | --- | --- | --- | --- | --- | --- | --- | --- | --- |
| 1.59 ± 0.37 | 0.76 ± 0.21 |  |  |  | CC(=O)c1c(C)ncc2c1C(=O)C=C(Nc1ccc(Cc3ccc(N)cc3)cc1)C2=O [Compound 9] | 2.79 ± 0.44 | 2.36 | 1.18 |  |
|  |  | 66.9 ± 6.13 | > 100 | 199 to 200 | COC(=O)c1c(C)nc(C)c2c1C(=O)C=C(Nc1ccc(Cc3ccc(NC4=CC(=O)c5c(C(=O)OC)c(C)nc(C)c5C4=O)cc3)cc1)C2=O [Compound 11] | > 100 | 0.30 |  |  |
|  |  | 24.8 ± 4.78 | 66.3 ± 5.61 |  | COC(=O)c1c(C)ncc2c1C(=O)C=C(Nc1ccc(Cc3ccc(NC4=CC(=O)c5c(cnc(C)c5C(=O)OC)C4=O)cc3)cc1)C2=O [Compound 13, Dimethyl-7,7′-(4,4′-methylenebis(4,1-phenylene)bis(azanediyl))bis(3-methyl-5,8-dioxo-5,8-dihydroisoquinoline-4-carboxylate)] | 79.8 ± 9.27 | 1.75 |  | 45.6 |
|  |  | 0.29 ± 0.05 | 0.45 ± 0.08 | 191 to 192 | COC(=O)c1c(C)ncc2c1C(=O)C=C(Nc1ccc(Cc3ccc(NC4=CC(=O)c5cnc(C)c(C(=O)OC)c5C4=O)cc3)cc1)C2=O [Compound 15, Methyl-7-(4-(4-(4-(methoxycarbonyl)-3-methyl-5,8-dioxo-5,8-dihydroisoquinolin-6-ylamino)benzyl)phenylamino)-3-methyl-5,8-dioxo-5,8-dihydroisoquinoline-4-carboxylate] | 2.58 ± 0.33 | 6.97 |  | 0.37 |
